What was measured:
Experiment in all cases: KINOMEscan kinase binding assay
[1] = target: T1, 384 kinases from the human genome (Homo sapiens, UniProt O14936); details: kinase CASK (Entrez CASK)
T1 construct: purchased Eurofin/DiscoverX
Excerpt: (§1) We reasoned that because internalizing AT1R and its targeting to intracellular compartments can support continued MAPK signaling, and since 21 inhibits receptor internalization, it should also impede to some extent ERK1/2 activation. […] Receptor-mediated ERK1/2 signaling can involve upstream kinases such as PKC, BRAF, and MEK1[35],[36]. […] To exclude other kinases potentially involved in ERK1/2 and Akt activation as targets of 21, we ran a kinase binding assay (KINOMEscan™) on 384 kinases from the human genome. Remarkably, a very high selectivity score S(10) of 0.008 was found (Supplementary Data 3).
(§2) The chemical library used for initial screening was from Chembridge DiverSet™ (60,000 compounds), Maybridge HitFinder™ (16,000 compounds), Maybridge (selected, 16,000 compounds), SPECS (selected, 16000 compounds), Microsource Discovery Spectrum (2000 compounds), Biomol (natural products, 500 compounds), Prestwick (commercialized products, 1120 compounds), SIGMA LopacTM (1280 compounds) and internal collection (synthesized at Université de Montréal-IRIC, ~4000 compounds). Compounds were all assigned an Université de Montréal number (UM) for internal use. Screen was performed at IRIC HTS facility. KINOMEscan™ profiling was serviced by Eurofin/DiscoverX (San Diego, USA).
(§3) Description of Additional Supplementary Files […]
(§4) File Name: Supplementary Data 3
(§5) Description: KINOMEscan results. Compound 21’s effect was tested on 384 kinases. Data represent kinases binding to their ligands in presence of 10 µM of 21, as compared to DMSO (100%). Results are from one experiment and represent the average of duplicates. Three kinases (FLT3, KIT, and PDGFRB) out of 384 were more than 90% affected (selectivity score S(10) of 0.008). […]

[2] = target: T2, 384 kinases from the human genome (Homo sapiens, UniProt O15111); details: kinase IKK-alpha (Entrez CHUK)
T2 construct: purchased Eurofin/DiscoverX
Excerpt: as §1, §2, §3, §4, §5

[3] = target: T3, 384 kinases from the human genome (Homo sapiens, UniProt O43283); details: kinase LZK (Entrez MAP3K13)
T3 construct: purchased Eurofin/DiscoverX
Excerpt: as §1, §2, §3, §4, §5

[4] = target: T4, 384 kinases from the human genome (Homo sapiens, UniProt O75716); details: kinase STK16 (Entrez STK16)
T4 construct: purchased Eurofin/DiscoverX
T4 sequence (O75716 whole entry): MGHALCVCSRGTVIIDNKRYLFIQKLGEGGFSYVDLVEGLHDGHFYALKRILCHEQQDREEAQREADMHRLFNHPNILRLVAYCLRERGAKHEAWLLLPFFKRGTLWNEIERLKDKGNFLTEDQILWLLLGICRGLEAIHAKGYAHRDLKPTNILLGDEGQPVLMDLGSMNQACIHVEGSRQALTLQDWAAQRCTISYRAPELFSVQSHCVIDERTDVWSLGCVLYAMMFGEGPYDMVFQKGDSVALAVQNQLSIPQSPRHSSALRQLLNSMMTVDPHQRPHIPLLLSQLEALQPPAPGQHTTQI
Excerpt: as §1, §2, §3, §4, §5

[5] = target: T5, 384 kinases from the human genome (Homo sapiens, UniProt O95819); details: kinase MAP4K4 (Entrez MAP4K4)
T5 construct: purchased Eurofin/DiscoverX
Excerpt: as §1, §2, §3, §4, §5

[6] = target: T6, 384 kinases from the human genome (Homo sapiens, UniProt P04629); details: kinase TRKA (Entrez NTRK1)
T6 construct: purchased Eurofin/DiscoverX
Excerpt: as §1, §2, §3, §4, §5

[7] = target: T7, 384 kinases from the human genome (Homo sapiens, UniProt P17612); details: kinase PKAC-alpha (Entrez PRKACA)
T7 construct: purchased Eurofin/DiscoverX
Excerpt: as §1, §2, §3, §4, §5

[8] = target: T8, 384 kinases from the human genome (Homo sapiens, UniProt P29317); details: kinase EPHA2 (Entrez EPHA2)
T8 construct: purchased Eurofin/DiscoverX
T8 sequence (P29317 24-976): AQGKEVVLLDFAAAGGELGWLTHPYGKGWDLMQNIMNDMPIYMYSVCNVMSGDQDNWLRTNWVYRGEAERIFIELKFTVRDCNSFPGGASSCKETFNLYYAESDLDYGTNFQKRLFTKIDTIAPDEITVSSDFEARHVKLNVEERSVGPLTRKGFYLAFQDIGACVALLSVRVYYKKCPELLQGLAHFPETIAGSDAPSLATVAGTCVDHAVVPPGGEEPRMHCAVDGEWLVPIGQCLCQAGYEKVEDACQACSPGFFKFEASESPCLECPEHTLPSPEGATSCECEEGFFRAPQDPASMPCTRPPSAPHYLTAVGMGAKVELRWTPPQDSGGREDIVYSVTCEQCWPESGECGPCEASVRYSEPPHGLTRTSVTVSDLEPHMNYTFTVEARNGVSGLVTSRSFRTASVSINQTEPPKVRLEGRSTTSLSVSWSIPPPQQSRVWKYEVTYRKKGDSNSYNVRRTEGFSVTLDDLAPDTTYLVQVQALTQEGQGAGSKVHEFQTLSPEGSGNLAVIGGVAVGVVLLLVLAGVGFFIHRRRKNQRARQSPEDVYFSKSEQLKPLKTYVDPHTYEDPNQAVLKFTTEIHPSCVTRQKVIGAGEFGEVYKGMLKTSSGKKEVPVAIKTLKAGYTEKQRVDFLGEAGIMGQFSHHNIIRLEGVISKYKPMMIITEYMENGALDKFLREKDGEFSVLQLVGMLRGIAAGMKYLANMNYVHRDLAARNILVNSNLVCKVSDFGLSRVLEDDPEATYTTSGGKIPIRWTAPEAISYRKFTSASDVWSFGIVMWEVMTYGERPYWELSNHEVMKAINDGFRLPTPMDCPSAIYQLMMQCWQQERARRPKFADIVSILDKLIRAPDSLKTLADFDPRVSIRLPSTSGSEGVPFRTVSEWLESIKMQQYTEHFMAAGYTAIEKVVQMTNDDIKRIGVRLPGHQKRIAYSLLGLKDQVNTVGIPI
Excerpt: as §1, §2, §3, §4, §5

[9] = target: T9, 384 kinases from the human genome (Homo sapiens, UniProt P36894); details: kinase BMPR1A (Entrez BMPR1A)
T9 construct: purchased Eurofin/DiscoverX
Excerpt: as §1, §2, §3, §4, §5

[10] = target: T10, 384 kinases from the human genome (Homo sapiens, UniProt P42679); details: kinase CTK (Entrez MATK)
T10 construct: purchased Eurofin/DiscoverX
T10 sequence (P42679 whole entry): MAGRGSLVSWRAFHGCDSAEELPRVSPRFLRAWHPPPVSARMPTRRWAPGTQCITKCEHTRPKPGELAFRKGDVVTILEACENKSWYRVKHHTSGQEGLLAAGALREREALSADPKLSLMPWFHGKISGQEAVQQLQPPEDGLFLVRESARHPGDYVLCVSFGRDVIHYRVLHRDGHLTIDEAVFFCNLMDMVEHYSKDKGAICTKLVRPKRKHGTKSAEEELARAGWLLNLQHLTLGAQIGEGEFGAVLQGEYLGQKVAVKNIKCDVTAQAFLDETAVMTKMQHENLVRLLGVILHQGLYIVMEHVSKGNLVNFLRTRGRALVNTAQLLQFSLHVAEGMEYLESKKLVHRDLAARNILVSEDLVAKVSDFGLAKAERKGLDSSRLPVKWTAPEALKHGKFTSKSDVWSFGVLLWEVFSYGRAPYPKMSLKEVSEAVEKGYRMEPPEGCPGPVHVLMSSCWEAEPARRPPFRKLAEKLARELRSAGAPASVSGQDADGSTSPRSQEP
Excerpt: as §1, §2, §3, §4, §5

[11] = target: T11, 384 kinases from the human genome (Homo sapiens, UniProt P51956); details: kinase NEK3 (Entrez NEK3)
T11 construct: purchased Eurofin/DiscoverX
T11 sequence (P51956 whole entry): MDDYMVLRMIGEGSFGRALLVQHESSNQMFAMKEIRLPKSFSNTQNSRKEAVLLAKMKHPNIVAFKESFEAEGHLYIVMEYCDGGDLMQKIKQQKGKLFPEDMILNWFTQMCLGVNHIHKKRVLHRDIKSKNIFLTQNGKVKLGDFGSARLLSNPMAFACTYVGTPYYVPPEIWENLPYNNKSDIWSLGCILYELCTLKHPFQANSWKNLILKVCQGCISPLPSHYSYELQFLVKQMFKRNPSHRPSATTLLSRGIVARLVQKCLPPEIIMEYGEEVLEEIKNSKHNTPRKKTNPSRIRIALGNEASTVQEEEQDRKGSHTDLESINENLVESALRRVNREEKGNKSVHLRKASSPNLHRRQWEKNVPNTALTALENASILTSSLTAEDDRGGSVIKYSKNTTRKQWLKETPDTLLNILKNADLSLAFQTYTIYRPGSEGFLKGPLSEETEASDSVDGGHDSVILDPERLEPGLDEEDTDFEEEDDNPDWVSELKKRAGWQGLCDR
Excerpt: as §1, §2, §3, §4, §5

[12] = target: T12, 384 kinases from the human genome (Homo sapiens, UniProt Q12852); details: kinase DLK (Entrez MAP3K12)
T12 construct: purchased Eurofin/DiscoverX
Excerpt: as §1, §2, §3, §4, §5

[13] = target: T13, 384 kinases from the human genome (Homo sapiens, UniProt Q13464); details: kinase ROCK1 (Entrez ROCK1)
T13 construct: purchased Eurofin/DiscoverX
Excerpt: as §1, §2, §3, §4, §5

[14] = target: T14, 384 kinases from the human genome (Homo sapiens, UniProt Q13873); details: kinase BMPR2 (Entrez BMPR2)
T14 construct: purchased Eurofin/DiscoverX
T14 sequence (Q13873 27-1038): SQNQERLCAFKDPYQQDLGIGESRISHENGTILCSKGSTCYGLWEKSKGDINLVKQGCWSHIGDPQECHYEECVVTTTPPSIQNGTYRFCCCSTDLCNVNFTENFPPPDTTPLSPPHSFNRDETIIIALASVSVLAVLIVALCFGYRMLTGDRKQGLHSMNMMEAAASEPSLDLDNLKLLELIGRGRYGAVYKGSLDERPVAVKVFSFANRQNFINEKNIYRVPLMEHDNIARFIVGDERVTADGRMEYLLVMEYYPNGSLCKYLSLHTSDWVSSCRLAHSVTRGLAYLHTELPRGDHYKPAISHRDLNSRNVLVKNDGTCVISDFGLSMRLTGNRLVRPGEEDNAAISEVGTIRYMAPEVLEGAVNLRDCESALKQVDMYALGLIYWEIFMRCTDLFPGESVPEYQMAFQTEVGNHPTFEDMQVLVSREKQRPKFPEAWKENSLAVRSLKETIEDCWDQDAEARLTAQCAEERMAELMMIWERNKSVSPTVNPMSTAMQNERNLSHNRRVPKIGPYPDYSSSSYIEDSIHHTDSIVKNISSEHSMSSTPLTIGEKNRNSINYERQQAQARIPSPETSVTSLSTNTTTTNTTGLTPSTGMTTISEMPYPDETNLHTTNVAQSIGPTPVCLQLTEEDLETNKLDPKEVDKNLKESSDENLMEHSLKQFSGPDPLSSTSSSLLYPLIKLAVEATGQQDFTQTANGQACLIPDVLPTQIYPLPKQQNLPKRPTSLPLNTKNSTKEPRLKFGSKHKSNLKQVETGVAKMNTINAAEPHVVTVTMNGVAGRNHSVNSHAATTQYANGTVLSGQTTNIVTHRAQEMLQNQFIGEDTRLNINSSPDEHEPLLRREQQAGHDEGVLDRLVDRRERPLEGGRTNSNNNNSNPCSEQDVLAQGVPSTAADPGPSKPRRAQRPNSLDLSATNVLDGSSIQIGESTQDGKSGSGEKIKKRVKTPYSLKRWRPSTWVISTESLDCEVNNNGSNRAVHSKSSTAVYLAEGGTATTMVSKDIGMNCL
Excerpt: as §1, §2, §3, §4, §5

[15] = target: T15, 384 kinases from the human genome (Homo sapiens, UniProt Q16832); details: kinase DDR2 (Entrez DDR2)
T15 construct: purchased Eurofin/DiscoverX
Excerpt: as §1, §2, §3, §4, §5

[16] = target: T16, 384 kinases from the human genome (Homo sapiens, UniProt Q8IWQ3); details: kinase BRSK2 (Entrez BRSK2)
T16 construct: purchased Eurofin/DiscoverX
Excerpt: as §1, §2, §3, §4, §5

[17] = target: T17, 384 kinases from the human genome (Homo sapiens, UniProt Q8N5S9); details: kinase CAMKK1 (Entrez CAMKK1)
T17 construct: purchased Eurofin/DiscoverX
T17 sequence (Q8N5S9 whole entry): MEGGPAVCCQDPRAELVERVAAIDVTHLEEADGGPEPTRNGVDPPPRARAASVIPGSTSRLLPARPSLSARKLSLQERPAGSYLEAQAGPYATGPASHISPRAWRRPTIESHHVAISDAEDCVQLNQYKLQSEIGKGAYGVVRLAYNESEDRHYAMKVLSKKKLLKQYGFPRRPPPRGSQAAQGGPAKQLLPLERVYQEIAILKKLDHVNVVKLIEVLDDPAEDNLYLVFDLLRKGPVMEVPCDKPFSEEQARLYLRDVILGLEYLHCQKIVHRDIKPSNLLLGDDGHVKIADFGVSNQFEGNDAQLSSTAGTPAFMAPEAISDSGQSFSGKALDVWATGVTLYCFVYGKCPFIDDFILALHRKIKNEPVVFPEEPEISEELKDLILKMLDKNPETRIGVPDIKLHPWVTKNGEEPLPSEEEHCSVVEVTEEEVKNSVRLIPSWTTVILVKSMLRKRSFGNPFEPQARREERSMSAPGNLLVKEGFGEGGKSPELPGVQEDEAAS
Excerpt: as §1, §2, §3, §4, §5

[18] = target: T18, 384 kinases from the human genome (Homo sapiens, UniProt Q9BUB5); details: kinase MKNK1 (Entrez MKNK1)
T18 construct: purchased Eurofin/DiscoverX
Excerpt: as §1, §2, §3, §4, §5

[19] = target: T19, 384 kinases from the human genome (Homo sapiens, UniProt Q9NQU5); details: kinase PAK6 (Entrez PAK6)
T19 construct: purchased Eurofin/DiscoverX
Excerpt: as §1, §2, §3, §4, §5

[20] = target: T20, 384 kinases from the human genome (Homo sapiens, UniProt Q9UBE8); details: kinase NLK (Entrez NLK)
T20 construct: purchased Eurofin/DiscoverX
Excerpt: as §1, §2, §3, §4, §5

[21] = target: T21, 384 kinases from the human genome (Homo sapiens, UniProt Q9UKE5); details: kinase TNIK (Entrez TNIK)
T21 construct: purchased Eurofin/DiscoverX
Excerpt: as §1, §2, §3, §4, §5

[22] = target: T22, 384 kinases from the human genome (Homo sapiens, UniProt Q9UKI8); details: kinase TLK1 (Entrez TLK1)
T22 construct: purchased Eurofin/DiscoverX
Excerpt: as §1, §2, §3, §4, §5

[23] = target: T23, 384 kinases from the human genome (Homo sapiens, UniProt Q9UL54); details: kinase TAOK2 (Entrez TAOK2)
T23 construct: purchased Eurofin/DiscoverX
T23 sequence (Q9UL54 whole entry): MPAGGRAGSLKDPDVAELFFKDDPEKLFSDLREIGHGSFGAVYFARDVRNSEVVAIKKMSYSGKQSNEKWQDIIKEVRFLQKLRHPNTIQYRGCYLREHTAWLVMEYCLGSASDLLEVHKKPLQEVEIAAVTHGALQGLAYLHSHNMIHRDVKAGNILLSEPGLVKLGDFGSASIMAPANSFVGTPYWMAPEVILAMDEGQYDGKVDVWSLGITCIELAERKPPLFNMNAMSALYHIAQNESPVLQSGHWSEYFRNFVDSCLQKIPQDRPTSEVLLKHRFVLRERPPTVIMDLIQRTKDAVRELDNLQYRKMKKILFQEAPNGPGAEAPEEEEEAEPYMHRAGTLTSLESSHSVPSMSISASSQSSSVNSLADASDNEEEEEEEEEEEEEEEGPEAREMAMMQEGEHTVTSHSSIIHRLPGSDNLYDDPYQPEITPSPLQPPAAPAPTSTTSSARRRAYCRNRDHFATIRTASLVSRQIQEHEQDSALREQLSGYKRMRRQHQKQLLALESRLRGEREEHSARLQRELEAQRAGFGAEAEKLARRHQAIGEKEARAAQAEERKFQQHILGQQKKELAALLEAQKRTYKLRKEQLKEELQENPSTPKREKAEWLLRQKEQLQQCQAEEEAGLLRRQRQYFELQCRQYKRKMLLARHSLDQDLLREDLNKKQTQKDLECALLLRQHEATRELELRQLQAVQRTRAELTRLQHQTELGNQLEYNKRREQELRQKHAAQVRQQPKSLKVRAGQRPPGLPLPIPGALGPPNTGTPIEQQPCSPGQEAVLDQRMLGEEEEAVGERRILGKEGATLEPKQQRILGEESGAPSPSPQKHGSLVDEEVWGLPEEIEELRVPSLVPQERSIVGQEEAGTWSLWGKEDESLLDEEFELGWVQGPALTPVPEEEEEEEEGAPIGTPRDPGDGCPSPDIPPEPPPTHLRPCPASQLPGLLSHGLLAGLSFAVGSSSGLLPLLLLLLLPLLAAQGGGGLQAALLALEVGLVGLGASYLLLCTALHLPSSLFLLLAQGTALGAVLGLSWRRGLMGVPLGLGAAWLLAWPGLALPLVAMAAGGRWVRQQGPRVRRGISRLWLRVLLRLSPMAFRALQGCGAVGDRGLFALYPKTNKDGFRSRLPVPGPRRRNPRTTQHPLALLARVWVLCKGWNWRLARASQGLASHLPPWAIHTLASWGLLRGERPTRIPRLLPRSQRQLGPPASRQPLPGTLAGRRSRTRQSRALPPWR
Excerpt: as §1, §2, §3, §4, §5

[24] = target: T24, 384 kinases from the human genome (Homo sapiens, UniProt Q9UPZ9); details: kinase ICK (Entrez ICK)
T24 construct: purchased Eurofin/DiscoverX
Excerpt: as §1, §2, §3, §4, §5

[25] = target: T25, 384 kinases from the human genome (Homo sapiens, UniProt Q9UQB9); details: kinase AURKC (Entrez AURKC)
T25 construct: purchased Eurofin/DiscoverX
Excerpt: as §1, §2, §3, §4, §5

[26] = tested on: 384 kinases from the human genome; details: 10 µM of 21
Excerpt: as §1, §2, §3, §4, §5

## CC(C)C(=O)N1CCN(c2ccc(NC(=O)c3cc4ccccc4o3)cc2Cl)CC1 [Compound 21]
[1]
  Percent Control: 100%
[2]
  Percent Control: 100%
[3]
  Percent Control: 100%
[4]
  Percent Control: 100%
[5]
  Percent Control: 66%
[6]
  Percent Control: 14%
[7]
  Percent Control: 97%
[8]
  Percent Control: 40%
[9]
  Percent Control: 79%
[10]
  Percent Control: 95%
[11]
  Percent Control: 100%
[12]
  Percent Control: 100%
[13]
  Percent Control: 88%
[14]
  Percent Control: 88%
[15]
  Percent Control: 100%
[16]
  Percent Control: 97%
[17]
  Percent Control: 100%
[18]
  Percent Control: 88%
[19]
  Percent Control: 81%
[20]
  Percent Control: 100%
[21]
  Percent Control: 57%
[22]
  Percent Control: 55%
[23]
  Percent Control: 93%
[24]
  Percent Control: 81%
[25]
  Percent Control: 87%
[26]
  binding to ERK subtypes: failed to bind
  binding to MEK subtypes: failed to bind
  binding to PI3K subtypes: failed to bind
  binding to different Akt subtypes: failed to bind

Reference: PMC8333425, “Discovery of a dual Ras and ARF6 inhibitor from a GPCR endocytosis screen” (Nature Communications, 2021)
